According to patent US20050042688A1, “Cellular analysis” (priority 2003, published 2005):

Tested on: T cells
Settings: whole blood collected in EDTA versus heparin as anticoagulant, 37° C., activated with PDBu/ionomycin
Experimental: In this example, whole blood was collected from a donor in collection tubes containing heparin (curve 1) or EDTA (curve 2), respectively, as the anticoagulants. Blood samples were then incubated at 37° C. and activated with phorbol ester and a calcium ionophore (PDBu/I, phorbol-12,13-dibutyrate/ionomycin).

With `O=C(O)CN(CCN(CC(=O)O)CC(=O)O)CC(=O)O` [EDTA] the “responsiveness of T-cells (level of inducible actin polymerization by PDBu/I)” value was “dramatic decrease in the responsiveness of T-cells”.
